Measurements: patent US9808469B2, “Antitumor activity of multi-kinase inhibitors in triple negative breast cancer” (ENTRECHEM, S.L, priority 2014, dated 2017)
Where two headings read alike, the source gives them in different places.

What was measured:
Type in all cases: cell-based
BT-549 cells = assay: MTT metabolization, inhibition of BT-549 cell proliferation; conditions: Homo sapiens, read-out: Percentage inhibition Formula (III) mean
Protocol: (§1) These triple negative breast cancer cell lines were obtained from the American Type Culture Collection Cell Biology Collection (ATCC) (Manassas, Va.). The medium was changed every 2 days.
(§2) Cell proliferation and growth experiments were carried out using 3-(4,5-dimethylthiazol-2-yl)-2,5-diphenyltetrazolium bromide (MTT) uptake assays, where MTT is reduced to purple formazan by the mitochondria of living cells. Increase in cell number is detected by augmented MTT metabolization, and decrease in cell number is reflected by a decrease. […] The cells were treated with the drug at different concentrations to plot the dose-response curves in all cancer cell lines using in the study. […] After treatment, each well was replaced with 250 μL of fresh medium containing MTT ([…]) and incubated for 1 hour. The medium was then removed and 500 μL of dimethyl sulfoxide was added to each well. The plate was agitated in the dark for 5 minutes to dissolve the MTT-formazan crystals. The absorbance of the samples was recorded at 562 nm in a multi-well plate reader (BMG labtech). Results were plotted as the mean values of quadruplicates from a representative experiment that was repeated at least two independent times.
(§3) Combination index values less than 1 indicate synergism, values equal to 1 indicate an additive effect, whereas values greater than 1 indicate antagonism. Combination index values from three independent experiments were generated.

[1] = system: HS578T, BT549 and MDA-MB-231 cells; assay: Apoptosis by Annexin V staining, single agent; conditions: 500 nM, 24 and 48 hours
Protocol: Cell cycle analyses and evaluation of apoptosis were performed by flow cytometry using propidium iodide and Annexin V, respectively.
For apoptosis analyses, HS578T, BT549 and MDA-MB-231 cell monolayers were incubated in trypsin-EDTA, washed twice with cold PBS, and then resuspended in binding buffer (10 mM HEPES free acid [pH 7.4], 140 mM NaCl, 2.5 mM CaCl2) at a concentration of 1×10^6 cells per mL. A total of 1×10^5 cells were incubated for 15 minutes in the dark with Annexin V-APC (BD Biosciences) and propidium iodide (PI) staining solution (5 μL Annexin V-[…], 10 μL of PI [[…] final concentration], 400 μL binding buffer).

MDA-MB-231 cells [2] = assay: Microarray analysis of mRNA and RT-PCR of DNA repair genes; conditions: 500 nM, 24 h; confirmed by RT-PCR
Protocol: MDA-MB-231 cells were grown in DMEM with 10% of FBS, and when 70% confluent, cells were treated with 500 nM Formula (III) for 24 h. Total RNA was extracted and purified using the RNeasy Mini Kit (Qiagen). Double-stranded cDNA and biotinylated cRNA were synthesized using a T7-polyT primer and the BioArray RNA labeling kit (Enzo Life Sciences, Farmingdale, N.Y.), respectively. The labeled RNA was fragmented and hybridized to human oligonucleotide arrays (Human Gene ST Arrays) (Affymetrix, Santa Clara, Calif.) according to manufacturers instructions. For the microarray data analysis, Affymetrix CEL files from each of the two microarray hybridization experiments for the two conditions [untreated control and treated with 500 nM Formula (III)] were imported into the dChip software (Dana Farber Cancer Institute, Boston, Mass.). […] The list of genes was analyzed using functional annotation bioinformatics microarray analysis (DAVID), and gene set enrichment analyses (GSEA). […]
Total RNA was extracted from cells with Rneasy Mini Kit (QIAGEN) as recommended by the supplier. cDNAs were synthesized from […] of total RNA by using RevertAid H Minus First Strand cDNA synthesis Kit (Fermentas) in a total volume of […]. […] Samples were analyzed in triplicate and mRNA expression was normalized to GADPH […] and quantified by the comparative cycle threshold (Ct) method. […]

MDA-MB-231 cells [3] = assay: MTT metabolization, inhibition of MDA-MB-231 cell proliferation; conditions: Homo sapiens, read-out: Percentage inhibition Formula (III) mean
Protocol: as §1, §2, §3

C[C@]12O[C@H](C[C@@H](O)[C@H]1O)n1c3ccccc3c3c4c(c5c6ccccc6n2c5c31)C(=O)NC4=O [Formula (III)]
inhibition at 0.1 µM (BT-549 cells; BT-549, Formula (III) 100 nM alone (Table 9)): 68.8%
inhibition at 0.1 µM (BT-549 cells; BT-549, Formula (III) 100 nM alone (Table 10)): 90.8%
inhibition at 0.12 µM (BT-549 cells; BT-549, Formula (III) 120 nM alone (Table 7)): 75.5%
inhibition at 0.12 µM (BT-549 cells; BT-549, Formula (III) 120 nM alone): 75.5%
inhibition at 0.18 µM (BT-549 cells; BT-549, Formula (III) 180 nM alone (Table 7)): 63.7%
inhibition at 0.18 µM (BT-549 cells; BT-549, Formula (III) 180 nM alone): 63.7%
inhibition at 0.2 µM (BT-549 cells; BT-549, Formula (III) 200 nM alone (Table 8)): 98.5%
inhibition at 0.2 µM (BT-549 cells; BT-549, Formula (III) 200 nM alone (Table 9)): 72.1%
inhibition at 0.2 µM (BT-549 cells; BT-549, Formula (III) 200 nM alone (Table 10)): 71.4%
inhibition at 0.24 µM (BT-549 cells; BT-549, Formula (III) 240 nM alone (Table 7)): 45%
inhibition at 0.24 µM (BT-549 cells; BT-549, Formula (III) 240 nM alone): 45%
inhibition at 0.26 µM (BT-549 cells; BT-549, Formula (III) 260 nM alone (Table 8)): 92.9%
inhibition at 0.3 µM (BT-549 cells; BT-549, Formula (III) 300 nM alone (Table 7)): 31.9%
inhibition at 0.3 µM (BT-549 cells; BT-549, Formula (III) 300 nM alone (Table 8)): 78%
inhibition at 0.3 µM (BT-549 cells; BT-549, Formula (III) 300 nM alone (Table 9)): 55.9%
inhibition at 0.3 µM (BT-549 cells; BT-549, Formula (III) 300 nM alone (Table 10)): 62.8%
inhibition at 0.3 µM (BT-549 cells; BT-549, Formula (III) 300 nM alone): 31.9%
inhibition at 0.38 µM (BT-549 cells; BT-549, Formula (III) 380 nM alone (Table 8)): 75.8%
inhibition at 0.4 µM (BT-549 cells; BT-549, Formula (III) 400 nM alone (Table 9)): 36.3%
inhibition at 0.4 µM (BT-549 cells; BT-549, Formula (III) 400 nM alone (Table 10)): 38.5%
apoptosis (Annexin V staining) [1]: an increase at 48 hours, more evident in HS578T
expression of genes involved in DNA repair (MDA-MB-231 cells [2]): increased expression of genes involved in DNA repair
viability at 0.1 µM (MDA-MB-231 cells [3]; MDA-MB-231, Formula (III) 100 nM alone (Table 4)): 56.4%
viability at 0.1 µM (MDA-MB-231 cells [3]; MDA-MB-231, Formula (III) 100 nM alone (Table 5)): 62.5%
viability at 0.12 µM (MDA-MB-231 cells [3]; MDA-MB-231, Formula (III) 120 nM alone (Table 2)): 63.8%
viability at 0.12 µM (MDA-MB-231 cells [3]; MDA-MB-231, Formula (III) 120 nM alone): 63.8%
viability at 0.18 µM (MDA-MB-231 cells [3]; MDA-MB-231, Formula (III) 180 nM alone (Table 2)): 49.8%
viability at 0.18 µM (MDA-MB-231 cells [3]; MDA-MB-231, Formula (III) 180 nM alone): 49.8%
viability at 0.2 µM (MDA-MB-231 cells [3]; MDA-MB-231, Formula (III) 200 nM alone (Table 3)): 60.3%
viability at 0.2 µM (MDA-MB-231 cells [3]; MDA-MB-231, Formula (III) 200 nM alone (Table 4)): 56.4%
viability at 0.2 µM (MDA-MB-231 cells [3]; MDA-MB-231, Formula (III) 200 nM alone (Table 5)): 46.9%
viability at 0.24 µM (MDA-MB-231 cells [3]; MDA-MB-231, Formula (III) 240 nM alone (Table 2)): 38.2%
viability at 0.24 µM (MDA-MB-231 cells [3]; MDA-MB-231, Formula (III) 240 nM alone): 38.2%
viability at 0.26 µM (MDA-MB-231 cells [3]; MDA-MB-231, Formula (III) 260 nM alone (Table 3)): 54.5%
viability at 0.3 µM (MDA-MB-231 cells [3]; MDA-MB-231, Formula (III) 300 nM alone (Table 2)): 28.1%
viability at 0.3 µM (MDA-MB-231 cells [3]; MDA-MB-231, Formula (III) 300 nM alone (Table 3)): 49.4%
viability at 0.3 µM (MDA-MB-231 cells [3]; MDA-MB-231, Formula (III) 300 nM alone (Table 4)): 40.2%
viability at 0.3 µM (MDA-MB-231 cells [3]; MDA-MB-231, Formula (III) 300 nM alone (Table 5)): 40.5%
viability at 0.3 µM (MDA-MB-231 cells [3]; MDA-MB-231, Formula (III) 300 nM alone): 28.1%
viability at 0.38 µM (MDA-MB-231 cells [3]; MDA-MB-231, Formula (III) 380 nM alone (Table 3)): 36.9%
viability at 0.4 µM (MDA-MB-231 cells [3]; MDA-MB-231, Formula (III) 400 nM alone (Table 4)): 35.3%
viability at 0.4 µM (MDA-MB-231 cells [3]; MDA-MB-231, Formula (III) 400 nM alone (Table 5)): 33.7%
